Key:
Conditions in all cases: treatment: drug alone; 5 days
[1] = system: SN12C; assay: AUC of dose-response viability curve, drug alone (arbitrary (AUC of normalised viability)); higher = less growth inhibition
Procedure: (§1)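 Primary HTS: 8 RCC cell lines treated with 8 doses (up to 10 uM) of each library drug alone for 5 days; viability read by CellTiter-Glo and normalised to DMSO. GI50 was fitted with XLfit (4-parameter), AUC is the area under the dose-response curve, and minimum viability is the lowest fraction of DMSO viability across doses.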

[2] = system: UO-31; assay: as above
Procedure: as §1

[3] = system: CAKI-1; assay: as above
Procedure: as §1

[4] = system: 769-P; assay: as above
Procedure: as §1

[5] = system: ACHN; assay: as above
Procedure: as §1

[6] = system: A498; assay: as above
Procedure: as §1

[7] = system: 786-O; assay: as above
Procedure: as §1

[8] = system: TK-10; assay: as above
Procedure: as §1

[9] = system: SN12C; assay: GI50, drug alone; higher = less potent
Procedure: as §1

[10] = system: UO-31; assay: GI50, drug alone; higher = less potent
Procedure: as §1

[11] = system: CAKI-1; assay: GI50, drug alone; higher = less potent
Procedure: as §1

[12] = system: 769-P; assay: GI50, drug alone; higher = less potent
Procedure: as §1

[13] = system: ACHN; assay: GI50, drug alone; higher = less potent
Procedure: as §1

[14] = system: A498; assay: GI50, drug alone; higher = less potent
Procedure: as §1

[15] = system: 786-O; assay: GI50, drug alone; higher = less potent
Procedure: as §1

[16] = system: TK-10; assay: GI50, drug alone; higher = less potent
Procedure: as §1

[17] = system: SN12C; assay: minimum viability across doses, drug alone, relative to DMSO (fraction); higher = less growth inhibition
Procedure: as §1

[18] = system: UO-31; assay: as above
Procedure: as §1

[19] = system: CAKI-1; assay: as above
Procedure: as §1

[20] = system: 769-P; assay: as above
Procedure: as §1

[21] = system: ACHN; assay: as above
Procedure: as §1

[22] = system: A498; assay: as above
Procedure: as §1

[23] = system: 786-O; assay: as above
Procedure: as §1

[24] = system: TK-10; assay: as above
Procedure: as §1

| Structure (SMILES) | GI50, drug alone [13] | GI50, drug alone [15] | AUC of dose-response viability curve [1] | AUC of dose-response viability curve [2] | AUC of dose-response viability curve [3] | AUC of dose-response viability curve [4] | AUC of dose-response viability curve [5] | AUC of dose-response viability curve [6] | AUC of dose-response viability curve [7] | AUC of dose-response viability curve [8] | GI50, drug alone [9] | GI50, drug alone [10] | GI50, drug alone [11] | GI50, drug alone [12] | GI50, drug alone [14] | GI50, drug alone [16] | minimum viability across doses [17] | minimum viability across doses [18] | minimum viability across doses [19] | minimum viability across doses [20] | minimum viability across doses [21] | minimum viability across doses [22] | minimum viability across doses [23] | minimum viability across doses [24] |
| --- | --- | --- | --- | --- | --- | --- | --- | --- | --- | --- | --- | --- | --- | --- | --- | --- | --- | --- | --- | --- | --- | --- | --- | --- |
| COc1cc(OC)c(/C=C/S(=O)(=O)Cc2ccc(OC)c(NCC(=O)[O][Na])c2)c(OC)c1 | 123 nM | 23.3 nM | 2.01 | 1.46 | 1.63 | 1.49 | 1.7 | 1.91 | 0.88 | 2.13 | 216 nM | 85.5 nM | 74.3 nM | 82.1 nM | 91.2 nM | 327 nM | 0.124 | 0.0069 | 0.119 | 0.0669 | 0.102 | 0.154 | 0.00295 | 0.273 |
| COc1cc2ncnc(Nc3cccc(Br)c3)c2cc1OC.Cl | 582 nM | 6690 nM | 3.17 | 4.18 | 2.92 | 2.36 | 2.07 | 4.63 | 2.81 | 2.36 | > 10000 nM | 6950 nM | 8680 nM | 1490 nM | > 10000 nM | 1360 nM | 0.825 | 0.0153 | 0.378 | 0.357 | 0.268 | 0.923 | 0.00889 | 0.181 |
| OCCn1cc(-c2cnc3nnn(Cc4ccc5ncccc5c4)c3n2)cn1 | > 10000 nM | > 10000 nM | 3.37 | 4.37 | 2.32 | 3.3 | 2.48 | 4.04 | 4 | 3.18 | > 10000 nM | > 10000 nM | > 10000 nM | > 10000 nM | > 10000 nM | > 10000 nM | 0.879 | 1.15 | 0.615 | 0.883 | 0.542 | 0.984 | 1.01 | 0.804 |
| O=C(NOCC(O)CO)c1cc(Br)c(F)c(F)c1Nc1ccc(I)cc1F (stereo unspecified) | 1990 nM | 448 nM | 2.83 | 3.29 | 2.32 | 2.62 | 2.42 | 3.58 | 1.94 | 2.4 | > 10000 nM | > 10000 nM | 1250 nM | 4980 nM | > 10000 nM | 2840 nM | 0.602 | 0.816 | 0.202 | 0.427 | 0.372 | 0.89 | 0.263 | 0.419 |
| Cc1cnc(NC(=O)Nc2cc(Br)c(C)cc2OC[C@@H]2CNCCO2)cn1 | 161 nM | 342 nM | 3.07 | 3.67 | 2.83 | 2.27 | 1.82 | 3.76 | 2 | 2.25 | 4660 nM | 745 nM | 1390 nM | > 10000 nM | 3570 nM | 580 nM | 0.175 | 0.00586 | 0.145 | 0.0604 | 0.0243 | 0.0991 | 0.00129 | 0.156 |
| O=c1cc(N2CCOCC2)oc2c(-c3cccc4c3sc3ccccc34)cccc12 | 6820 nM | 3260 nM | 3.26 | 3.93 | 2.74 | 3.36 | 3.44 | 3.5 | 2.69 | 3.15 | > 10000 nM | > 10000 nM | 2780 nM | 9840 nM | > 10000 nM | 9090 nM | 0.561 | 0.476 | 0.184 | 0.489 | 0.35 | 0.62 | 0.0967 | 0.447 |

More lines, main results first:

| GI50, drug alone [13] | GI50, drug alone [15] | Structure (SMILES) | AUC of dose-response viability curve [1] | AUC of dose-response viability curve [2] | AUC of dose-response viability curve [3] | AUC of dose-response viability curve [4] | AUC of dose-response viability curve [5] | AUC of dose-response viability curve [6] | AUC of dose-response viability curve [7] | AUC of dose-response viability curve [8] | GI50, drug alone [9] | GI50, drug alone [10] | GI50, drug alone [11] | GI50, drug alone [12] | GI50, drug alone [14] | GI50, drug alone [16] | minimum viability across doses [17] | minimum viability across doses [18] | minimum viability across doses [19] | minimum viability across doses [20] | minimum viability across doses [21] | minimum viability across doses [22] | minimum viability across doses [23] | minimum viability across doses [24] |
| --- | --- | --- | --- | --- | --- | --- | --- | --- | --- | --- | --- | --- | --- | --- | --- | --- | --- | --- | --- | --- | --- | --- | --- | --- |
| 2590 nM | 210 nM | CN(c1ncccc1CNc1nc(Nc2ccc3c(c2)CC(=O)N3)ncc1C(F)(F)F)S(C)(=O)=O.O=S(=O)(O)c1ccccc1 | 2.94 | 3.81 | 3.34 | 3.06 | 2.86 | 3.68 | 1.79 | 2.8 | 3880 nM | 4550 nM | 5150 nM | 4890 nM | 7730 nM | 4460 nM | 0.0169 | 0.0117 | 0.0631 | 0.0576 | 0.0138 | 0.018 | 0.00443 | 0.132 |
| 80.6 nM | 15.1 nM | CC(=O)NCC(=O)N1[C@H]2CC[C@H]1c1cc(Nc3ncc(C(F)(F)F)c(NC4CCC4)n3)ccc12 | 2.12 | 2.54 | 1.81 | 2.09 | 1.5 | 3.32 | 0.907 | 2.18 | 557 nM | 2640 nM | 173 nM | 375 nM | 4770 nM | 725 nM | 0.0115 | 0.0196 | 0.123 | 0.0288 | 0.0112 | 0.0256 | 0.0093 | 0.128 |
| 4510 nM | 1620 nM | NCC(=O)Nc1ccc(-n2nc(C(F)(F)F)cc2-c2ccc3c(ccc4ccccc43)c2)cc1 | 3.13 | 2.76 | 3.25 | 2.96 | 3.11 | 3.01 | 2.29 | 2.74 | 4070 nM | 928 nM | 4520 nM | 3770 nM | 3220 nM | 4250 nM | 0.00771 | 0.00932 | 0.0096 | 0.0386 | 0.0447 | 0.0189 | 0.00641 | 0.326 |
